Reference: ChEMBL document CHEMBL1137408, “Acylguanidines as small-molecule beta-secretase inhibitors” (J Med Chem, 2006)

How the values were obtained:
[1] = biological target: Pepsin A (Homo sapiens, UniProt P0DJD9); test: Inhibition of pepsin by FRET based peptide cleavage assay
[2] = test system: H4; test: Decrease in beta CTF level in wild type H4 cells by RICA; type: functional, cell-based; conditions: Homo sapiens
[3] = test system: H4; test: Decrease in beta amyloid protein level in wild type H4 cells by RICA; type: functional, cell-based; conditions: Homo sapiens
[4] = test system: CHO; test: Decrease in beta amyloid protein level in CHO cells expressing human APP by ELISA; type: functional; conditions: Cricetulus griseus, read-out: ED50 (the source's name)
[5] = organism: Homo sapiens; test: Selectivity for BACE1 over Cathepsin D
[6] = biological target: Beta-secretase 1 (Homo sapiens, UniProt P56817); test: Inhibition of human recombinant BACE1 by FRET based peptide cleavage assay
[7] = biological target: Cathepsin D (Homo sapiens, UniProt P07339); test: Inhibition of cathepsin D by FRET based peptide cleavage assay
[8] = biological target: T1, Beta-secretase 2 (Homo sapiens, UniProt Q9Y5Z0); test: Inhibition of BACE2 by FRET based peptide cleavage assay
T1 sequence (Q9Y5Z0 whole entry): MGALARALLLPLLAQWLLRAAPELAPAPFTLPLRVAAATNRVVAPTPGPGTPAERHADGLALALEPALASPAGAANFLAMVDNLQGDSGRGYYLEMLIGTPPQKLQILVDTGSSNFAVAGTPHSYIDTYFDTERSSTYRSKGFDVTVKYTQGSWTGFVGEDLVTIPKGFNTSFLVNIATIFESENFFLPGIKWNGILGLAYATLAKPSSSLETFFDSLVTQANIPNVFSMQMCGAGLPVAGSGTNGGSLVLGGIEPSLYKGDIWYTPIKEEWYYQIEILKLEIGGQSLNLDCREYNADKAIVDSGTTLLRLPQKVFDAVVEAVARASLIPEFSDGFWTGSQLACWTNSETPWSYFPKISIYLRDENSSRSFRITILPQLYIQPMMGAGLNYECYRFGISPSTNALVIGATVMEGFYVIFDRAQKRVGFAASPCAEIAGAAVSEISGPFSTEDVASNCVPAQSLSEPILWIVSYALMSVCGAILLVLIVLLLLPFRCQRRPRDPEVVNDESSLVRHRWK

Cathepsin D, sequence (P07339 65-162 limits assumed): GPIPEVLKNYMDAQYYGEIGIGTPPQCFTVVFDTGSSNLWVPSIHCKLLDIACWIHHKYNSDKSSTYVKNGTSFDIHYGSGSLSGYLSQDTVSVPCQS
Cathepsin D, sequence (P07339 169-412 limits assumed): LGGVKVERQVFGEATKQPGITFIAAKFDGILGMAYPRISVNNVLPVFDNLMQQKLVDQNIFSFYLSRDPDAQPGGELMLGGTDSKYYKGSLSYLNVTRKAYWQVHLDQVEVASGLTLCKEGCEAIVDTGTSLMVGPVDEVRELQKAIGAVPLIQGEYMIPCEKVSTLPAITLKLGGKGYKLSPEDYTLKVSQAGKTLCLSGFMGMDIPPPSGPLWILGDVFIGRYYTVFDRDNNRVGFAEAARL
Beta-secretase 1, sequence (P56817 whole entry): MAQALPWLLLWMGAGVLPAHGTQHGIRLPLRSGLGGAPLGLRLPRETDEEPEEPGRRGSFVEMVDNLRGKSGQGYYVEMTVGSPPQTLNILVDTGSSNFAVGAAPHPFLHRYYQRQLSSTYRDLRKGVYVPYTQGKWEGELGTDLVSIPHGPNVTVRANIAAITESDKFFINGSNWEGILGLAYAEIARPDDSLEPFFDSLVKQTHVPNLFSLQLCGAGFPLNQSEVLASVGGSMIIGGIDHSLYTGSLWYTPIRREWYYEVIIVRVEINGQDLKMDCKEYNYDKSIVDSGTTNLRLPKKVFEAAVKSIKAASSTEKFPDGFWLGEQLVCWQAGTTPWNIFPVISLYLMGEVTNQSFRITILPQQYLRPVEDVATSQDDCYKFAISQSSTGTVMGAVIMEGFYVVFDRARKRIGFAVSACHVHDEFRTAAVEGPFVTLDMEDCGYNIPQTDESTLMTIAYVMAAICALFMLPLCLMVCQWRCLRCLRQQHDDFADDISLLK
Pepsin A, sequence (P0DJD9 whole entry): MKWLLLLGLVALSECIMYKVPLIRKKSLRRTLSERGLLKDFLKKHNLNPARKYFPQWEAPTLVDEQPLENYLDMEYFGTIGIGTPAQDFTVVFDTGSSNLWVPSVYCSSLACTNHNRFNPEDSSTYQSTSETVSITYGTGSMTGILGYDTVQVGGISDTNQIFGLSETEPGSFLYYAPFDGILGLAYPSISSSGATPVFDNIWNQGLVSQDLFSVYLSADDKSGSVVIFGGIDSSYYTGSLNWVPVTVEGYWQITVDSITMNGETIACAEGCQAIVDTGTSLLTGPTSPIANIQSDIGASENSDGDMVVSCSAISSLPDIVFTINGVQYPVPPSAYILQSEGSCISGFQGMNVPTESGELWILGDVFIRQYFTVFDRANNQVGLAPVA

IC50 [1] | Selectivity ratio [5] | IC50 [6] | IC50 [7] | IC50 [8] | SMILES | Activity [2] | Activity [3] | EC50 [4]
> 50 µM | – | – | – | – | N=C(N)NC(=O)Cn1c(-c2ccccc2)ccc1-c1ccccc1 | Dose-dependent effect | Dose-dependent effect | –
> 50 µM | – | – | – | – | CC(=O)c1ccc(Oc2ccc(-c3ccc(-c4ccccc4Cl)n3CC(=O)NC(=N)N)cc2)cc1 | – | – | 8.6 µM
– | > 50 | – | – | – | CCCOc1ccc(-c2ccc(-c3ccccc3Cl)n2CC(=O)/N=C(/N)NCCCO)cc1 | – | – | –
> 50 µM | > 50 | 0.24 µM | 19.4 µM | 3.5 µM | N/C(=N/C(=O)Cn1c(-c2ccccc2)ccc1C12CC3CC(CC(C3)C1)C2)NCCCO | – | – | 1.8 µM
> 50 µM | > 50 | 0.6 µM | 30.2 µM | 12.9 µM | NC(N)=NC(=O)Cn1c(-c2ccccc2)ccc1C12CC3CC(CC(C3)C1)C2 | – | – | 3.1 µM

SMILES | IC50 [1] | Selectivity ratio [5] | IC50 [6] | IC50 [7] | IC50 [8] | Activity [2] | Activity [3] | EC50 [4]
CCCOc1ccc(-c2ccc(-c3ccccc3Cl)n2CC(=O)NC(=N)NCCCO)cc1 | > 50 µM | – | 0.11 µM | 5.9 µM | 0.34 µM | – | – | –
